Data set [1] can be described thus: in vitro. As to conditions: PAMPA, pH 7.4.
Description: Permeability of the compound in pH 7.4 PBS by PAMPA-BBB assay
For data set [2], the target named is T1, Amine oxidase [flavin-containing] B (Homo sapiens, UniProt P27338).
T1 sequence (P27338 whole entry): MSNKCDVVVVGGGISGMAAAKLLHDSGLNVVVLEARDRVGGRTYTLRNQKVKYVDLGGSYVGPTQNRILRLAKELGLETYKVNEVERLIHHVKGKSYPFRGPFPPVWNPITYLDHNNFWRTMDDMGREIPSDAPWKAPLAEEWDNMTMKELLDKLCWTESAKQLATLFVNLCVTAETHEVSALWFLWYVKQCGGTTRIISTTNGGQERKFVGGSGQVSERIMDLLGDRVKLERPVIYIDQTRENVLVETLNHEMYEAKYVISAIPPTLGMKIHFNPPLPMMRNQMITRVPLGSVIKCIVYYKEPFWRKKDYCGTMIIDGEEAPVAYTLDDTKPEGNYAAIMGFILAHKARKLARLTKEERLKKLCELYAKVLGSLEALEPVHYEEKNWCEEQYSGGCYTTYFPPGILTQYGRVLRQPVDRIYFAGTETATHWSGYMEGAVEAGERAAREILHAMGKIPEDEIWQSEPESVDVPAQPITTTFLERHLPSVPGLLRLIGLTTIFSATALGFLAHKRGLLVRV
Put plainly: biochemical. Format: cell-based.
Description: Inhibition of recombinant human MAO-B expressed in baculovirus infected BTI insect cells using p-tyramine as substrate pretreated for 15 mins followed by substrate addition by horse-radish peroxidase/amplex red-based fluorescence method

For data set [3], the species on record is Homo sapiens. Nature of the data set: Selectivity index, ratio of IC50 for human serum BuChE to IC50 for recombinant human AChE expressed in HEK293 cells. The format is cell-based.
The nature of data set [4]: Antioxidant activity assessed as trolox equivalent of AAPH-induced radical scavenging activity at 10 uM pretreated for 15 mins followed by APPH challenge measured every minute for 80 mins by ORAC-FL assay. The format is functional.
Data set [5] has as its target T2, Acetylcholinesterase (Homo sapiens, UniProt P22303). Put plainly: Inhibition of recombinant human AChE expressed in HEK293 cells using acetylthiocholine iodide as substrate pretreated for 5 mins followed by substrate addition and measured for 5 mins by Ellman's method.
Data set [6] addresses Cholinesterase (Homo sapiens, UniProt P06276). Put plainly: Inhibition of human serum BuChE using butyrylthiocholine as substrate pretreated for 5 mins followed by substrate addition and measured for 5 mins by Ellman's method.
The target of data set [7] is T3, Polyunsaturated fatty acid 5-lipoxygenase (Homo sapiens, UniProt P09917).
T3 sequence (P09917 whole entry): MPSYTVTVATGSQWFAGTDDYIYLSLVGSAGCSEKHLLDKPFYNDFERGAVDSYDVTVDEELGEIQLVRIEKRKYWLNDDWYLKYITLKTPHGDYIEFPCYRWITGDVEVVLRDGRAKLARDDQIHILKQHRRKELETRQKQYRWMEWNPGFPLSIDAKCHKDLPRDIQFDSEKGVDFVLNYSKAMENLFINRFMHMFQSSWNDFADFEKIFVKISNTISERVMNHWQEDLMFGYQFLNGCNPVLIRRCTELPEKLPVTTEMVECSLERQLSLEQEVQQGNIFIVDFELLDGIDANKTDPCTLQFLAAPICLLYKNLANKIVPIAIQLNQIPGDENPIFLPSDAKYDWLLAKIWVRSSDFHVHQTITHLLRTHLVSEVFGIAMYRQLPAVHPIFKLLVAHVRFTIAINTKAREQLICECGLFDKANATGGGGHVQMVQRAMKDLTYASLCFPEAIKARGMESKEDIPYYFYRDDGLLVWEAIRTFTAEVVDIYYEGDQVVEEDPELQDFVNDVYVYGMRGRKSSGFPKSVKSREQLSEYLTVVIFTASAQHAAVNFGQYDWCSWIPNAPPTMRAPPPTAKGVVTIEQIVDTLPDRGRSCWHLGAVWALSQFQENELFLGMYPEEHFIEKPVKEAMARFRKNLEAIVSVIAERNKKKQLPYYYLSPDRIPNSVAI
Put plainly: Inhibition of human 5-lipoxygenase using arachidonic acid as substrate pretreated for 10 mins followed by substrate and ATP addition and measured after 20 mins by H2DCFDA probe based fluorescence assay.

The target in data set [8] is T4, Amine oxidase [flavin-containing] A (Homo sapiens, UniProt P21397).
T4 sequence (P21397 whole entry): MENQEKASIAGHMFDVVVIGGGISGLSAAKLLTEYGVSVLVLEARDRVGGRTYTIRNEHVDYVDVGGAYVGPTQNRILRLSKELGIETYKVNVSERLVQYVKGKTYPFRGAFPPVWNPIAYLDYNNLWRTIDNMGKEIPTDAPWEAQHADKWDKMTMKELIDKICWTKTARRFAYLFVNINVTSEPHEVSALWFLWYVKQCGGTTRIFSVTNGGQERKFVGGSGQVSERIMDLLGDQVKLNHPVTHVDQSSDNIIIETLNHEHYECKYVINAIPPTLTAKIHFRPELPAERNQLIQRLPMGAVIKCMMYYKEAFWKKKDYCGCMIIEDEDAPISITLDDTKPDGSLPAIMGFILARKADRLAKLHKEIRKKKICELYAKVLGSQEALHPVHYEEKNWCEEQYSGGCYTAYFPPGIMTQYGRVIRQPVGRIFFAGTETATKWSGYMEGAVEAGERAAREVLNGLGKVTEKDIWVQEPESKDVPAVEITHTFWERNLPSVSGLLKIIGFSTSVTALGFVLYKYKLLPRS
Put plainly: Inhibition of recombinant human MAO-A expressed in baculovirus infected BTI insect cells using p-tyramine as substrate pretreated for 15 mins followed by substrate addition by horse-radish peroxidase/amplex red-based fluorescence method.

For data set [9], the target named is T5, Polyunsaturated fatty acid 5-lipoxygenase (Homo sapiens) (UniProt P09917).
T5 sequence (whole entry): T3 sequence (P09917 whole entry)
Put plainly: Inhibition of human 5-lipoxygenase at 10 uM using arachidonic acid as substrate pretreated for 10 mins followed by substrate and ATP addition and measured after 20 mins by […] probe based fluorescence assay relative to control.

Data set [10] concerns the target T2, Acetylcholinesterase. Put plainly: Inhibition of recombinant human AChE expressed in HEK293 cells using varying levels of acetylthiocholine iodide as substrate by Lineweaver-burk plot analysis.
For data set [11], the target named is T6, Sigma intracellular receptor 2 (Rattus norvegicus, UniProt Q5U3Y7).
T6 sequence (Q5U3Y7 whole entry): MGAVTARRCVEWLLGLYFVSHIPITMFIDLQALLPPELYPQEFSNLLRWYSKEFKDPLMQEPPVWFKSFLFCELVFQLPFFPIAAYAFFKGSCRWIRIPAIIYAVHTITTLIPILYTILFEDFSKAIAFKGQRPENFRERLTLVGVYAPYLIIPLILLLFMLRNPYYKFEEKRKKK
Nature of the data set: Displacement of [3H]DTG from sigma2 receptor in rat liver membranes by liquid scintillation counting method. Format: cell membranes, Membrane.

A short description of data set [12]: Selectivity ratio of Ki for displacement of [3H]DTG from sigma2 receptor in rat liver membranes to Ki for displacement of (+)-[3H]pentazocine from guinea pig brain membrane sigma1 receptor. Format: cell membranes.
For data set [13], the target named is Sigma non-opioid intracellular receptor 1 (Cavia porcellus, UniProt Q60492). Put plainly: Displacement of (+)-[3H]pentazocine from guinea pig brain membrane sigma1 receptor by liquid scintillation counting method.
Chain of Sigma non-opioid intracellular receptor 1 (Q60492 whole entry): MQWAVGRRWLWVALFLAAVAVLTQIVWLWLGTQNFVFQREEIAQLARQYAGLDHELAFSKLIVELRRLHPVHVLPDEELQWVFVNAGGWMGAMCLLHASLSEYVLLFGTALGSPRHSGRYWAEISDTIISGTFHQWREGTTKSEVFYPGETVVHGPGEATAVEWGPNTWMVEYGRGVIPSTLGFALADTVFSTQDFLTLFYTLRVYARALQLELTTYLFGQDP

The source made the active and inactive calls. The calls are words filed in the database; no cut-off is given here.

Chain of Cholinesterase (P06276 whole entry): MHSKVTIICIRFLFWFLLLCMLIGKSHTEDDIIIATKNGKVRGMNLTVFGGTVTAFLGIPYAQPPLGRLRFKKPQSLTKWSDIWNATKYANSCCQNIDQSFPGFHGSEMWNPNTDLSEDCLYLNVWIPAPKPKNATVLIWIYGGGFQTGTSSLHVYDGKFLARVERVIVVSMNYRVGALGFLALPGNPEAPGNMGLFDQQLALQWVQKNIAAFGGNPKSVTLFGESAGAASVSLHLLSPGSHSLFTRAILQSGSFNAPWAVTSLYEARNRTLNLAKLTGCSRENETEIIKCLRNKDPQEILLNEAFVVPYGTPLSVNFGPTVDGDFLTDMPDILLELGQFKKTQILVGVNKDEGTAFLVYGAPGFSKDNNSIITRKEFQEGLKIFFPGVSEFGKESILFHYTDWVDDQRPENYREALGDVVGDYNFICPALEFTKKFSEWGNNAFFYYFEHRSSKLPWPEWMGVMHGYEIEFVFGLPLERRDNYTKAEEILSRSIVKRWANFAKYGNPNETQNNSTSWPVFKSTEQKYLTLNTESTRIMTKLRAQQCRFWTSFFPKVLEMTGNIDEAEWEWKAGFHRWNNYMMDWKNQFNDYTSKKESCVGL
T2 sequence (P22303 whole entry): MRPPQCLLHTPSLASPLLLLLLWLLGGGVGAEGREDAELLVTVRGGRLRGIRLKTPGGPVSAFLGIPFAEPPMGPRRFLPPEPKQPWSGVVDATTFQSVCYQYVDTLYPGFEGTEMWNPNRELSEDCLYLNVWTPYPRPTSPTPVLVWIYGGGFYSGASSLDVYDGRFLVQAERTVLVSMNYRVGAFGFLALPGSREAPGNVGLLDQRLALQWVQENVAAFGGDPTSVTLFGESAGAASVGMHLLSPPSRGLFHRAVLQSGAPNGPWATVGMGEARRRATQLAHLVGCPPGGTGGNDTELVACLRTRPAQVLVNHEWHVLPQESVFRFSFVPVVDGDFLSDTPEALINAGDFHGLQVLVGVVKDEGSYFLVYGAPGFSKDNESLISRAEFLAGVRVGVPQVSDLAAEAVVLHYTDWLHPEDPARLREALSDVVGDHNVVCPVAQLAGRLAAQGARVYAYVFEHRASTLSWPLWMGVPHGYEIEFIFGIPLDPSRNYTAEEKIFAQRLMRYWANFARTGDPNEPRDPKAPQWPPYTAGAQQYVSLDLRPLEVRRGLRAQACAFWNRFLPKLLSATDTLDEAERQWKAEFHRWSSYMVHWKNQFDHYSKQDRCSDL

The compound `COc1cccc2c(=O)cc(C(=O)NCCC3CCN(Cc4ccccc4)CC3)[nH]c12` returned a Papp in data set [1] of 153 nm/s. The IC50 in [2] was 71.6 µM; in data set [5], 1.64 µM; in data set [6], above 10 µM; in data set [7], above 100 µM; in data set [8] it was 52.4 µM. Moreover, in data set [3], the Ratio IC50 was above 6.1. In data set [4], the result was inactive. In addition, in data set [9], the inhibition worked out at 47%.
`COc1cc(OC)c2c(=O)cc(C(=O)NCCC3CCN(Cc4ccccc4)CC3)oc2c1` came in with a Papp in [1] of 88 nm/s. Also, the Ratio IC50 in [3] was 20. For the same compound, the IC50 was 0.32 µM in data set [5] and 6.3 µM in data set [6].
As to `COc1cccc2oc(C(=O)NCCC3CCN(Cc4ccccc4)CC3)cc(=O)c12`, the Ratio IC50 in data set [3] is above 12. Further, the IC50 is 0.87 µM in [5] and above 10 µM in data set [6].
Turning to `COc1cc2oc(C(=O)OCCC3CCN(Cc4ccccc4)CC3)cc(=O)c2cc1OC`, in data set [10], the Ki was 0.011 µM. In addition, the IC50 was 0.056 µM in [5] and above 10 µM in data set [6].
`COc1ccc2c(=O)cc(C(=O)NCCC3CCN(Cc4ccccc4)CC3)oc2c1` displayed a Papp in [1] of 76 nm/s. For the same compound, the IC50 is above 100 µM in [2]; 0.033 µM in [5]; 9.9 µM in data set [6]; above 100 µM in [7]; above 100 µM in data set [8]. Moreover, the Ratio IC50 in [3] is 300. In addition, the inhibition in data set [9] is 31%.
As for `O=C(NCCC1CCN(Cc2ccccc2)CC1)c1cc(=O)c2ccccc2o1`, in data set [1], the Papp is 67 nm/s. For the same compound, the Ratio IC50 in data set [3] stood at 46. Also, in data set [10], the Ki amounted to 0.057 µM. The IC50 is 0.11 µM in data set [5], 5.09 µM in data set [6] and above 100 µM in [7]. Further, the inhibition in [9] worked out at 24%.
Take `COc1ccc2c(=O)cc(C(=O)NCCC3CCN(Cc4ccccc4)CC3)[nH]c2c1`: the results for the Ki in [11] and in data set [13] were 0.376 µM and 0.0452 µM, respectively. For the same compound, the Ratio Ki in data set [12] amounted to 8. This compound also returned a Papp in data set [1] of 109 nm/s. Also, the IC50 was 56.4 µM in [2]; 0.45 µM in [5]; above 10 µM in [6]; above 100 µM in [7]; 72.7 µM in data set [8]. For the same compound, the Ratio IC50 in data set [3] was above 22. In data set [4], the outcome was inactive. Moreover, the inhibition in [9] was found to be 31%.
Turning to `COc1ccc2oc(C(=O)NCCC3CCN(Cc4ccccc4)CC3)cc(=O)c2c1`, in [1], the Papp is 100 nm/s. The IC50 in data set [2] is above 100 µM; in [5], 0.17 µM; in data set [6], 6.5 µM; in data set [7], above 100 µM; in [8] it was above 100 µM. Also, the Ratio IC50 in data set [3] came to 38. For the same compound, in data set [9], the inhibition was 33%.
Consider `COc1cc2nc(C(=O)NCCC3CCN(Cc4ccccc4)CC3)cc(OC)c2cc1OC`, for which, in data set [1], the Papp is 130 nm/s. Moreover, the Ratio IC50 in data set [3] is 14. Besides, the IC50 was 0.62 µM in [5] and 8.79 µM in data set [6].
For `COc1ccc2[nH]c(C(=O)NCCC3CCN(Cc4ccccc4)CC3)cc(=O)c2c1`, the Ki amounted to 0.459 µM in data set [11] and 0.0072 µM in data set [13]. In addition, the Ratio Ki in [12] was determined as 64. For the same compound, in data set [1], the Papp stood at 120 nm/s. For the same compound, the IC50 was above 100 µM in data set [2]; 0.88 µM in [5]; above 10 µM in [6]; above 100 µM in [7]; above 100 µM in data set [8]. The Ratio IC50 in data set [3] was above 11. The result in data set [4] was inactive. The inhibition in data set [9] was determined as 31%.
`COc1ccc2oc(C(=O)NCC3CCN(Cc4ccccc4)CC3)cc(=O)c2c1` came in with a Papp in [1] of 68 nm/s. In addition, the Ratio IC50 in data set [3] is above 2.8. Moreover, the IC50 in data set [5] was 3.61 µM; in [6], above 10 µM.
In the same order, the values of `COc1ccc2oc(C(=O)OCC3CCN(Cc4ccccc4)CC3)cc(=O)c2c1` are 61 nm/s, above 1.3, 7.49 µM and above 10 µM.
Take `COc1cc2[nH]c(C(=O)NCCC3CCN(Cc4ccccc4)CC3)cc(=O)c2cc1OC`: the Ki in data set [11] was found to be 0.487 µM; in data set [13], 0.0363 µM; in data set [10], 0.06 µM. Besides, the Ratio Ki in data set [12] stood at 13. In data set [1], this compound displayed a Papp of 53 nm/s. The IC50 in data set [2] was above 100 µM; in data set [5], 0.17 µM; in data set [6] it was above 10 µM; in data set [7], above 100 µM; in data set [8] it was above 100 µM. Moreover, the Ratio IC50 in data set [3] is above 59. In addition, in [4], the outcome was inactive. The inhibition in data set [9] was 31%.
With `COc1cc2oc(C(=O)NCC3CCN(Cc4ccccc4)CC3)cc(=O)c2cc1OC`, in [3], the Ratio IC50 was above 6.8. The IC50 in data set [5] is 1.46 µM; in data set [6], above 10 µM; in data set [7], above 100 µM. Besides, in data set [9], the inhibition was 45%.
`COc1cc2oc(C(=O)NCCCC3CCN(Cc4ccccc4)CC3)cc(=O)c2cc1OC`: the Papp in data set [1] stood at 50 nm/s. Besides, the 50% inhibitory concentration (IC50) was above 100 µM in data set [2]; 0.11 µM in [5]; above 10 µM in [6]; above 100 µM in [7]; above 100 µM in [8]. Further, in data set [3], the Ratio IC50 was above 91. For the same compound, the Ki in [10] came out at 0.021 µM. Besides, the outcome in data set [4] was inactive. For the same compound, in [9], the inhibition was 48%.
In data set [1], `O=C(NC1CCN(Cc2ccccc2)CC1)c1cc(=O)c2cc(O)ccc2o1` had a Papp of 19 nm/s. Also, in data set [3], the Ratio IC50 is above 4.2. Further, the IC50 was 2.36 µM in [5], above 10 µM in data set [6] and above 100 µM in data set [7]. In addition, in data set [9], the inhibition turned out to be 48%.
Consider `COc1ccc2oc(C(=O)NCCCC3CCN(Cc4ccccc4)CC3)cc(=O)c2c1`, for which, in data set [1], the Papp was determined as 106 nm/s. Moreover, the IC50 in data set [2] was above 100 µM; in [5], 0.37 µM; in [6] it was 5.8 µM; in [7] it was 82.4 µM; in [8], above 100 µM. The Ratio IC50 in data set [3] came to 16. In addition, the outcome in data set [4] was inactive.

For the origin of these results see ChEMBL document CHEMBL4270563, “Neurogenic and neuroprotective donepezil-flavonoid hybrids with sigma-1 affinity and inhibition of key enzymes in Alzheimer's disease” (Eur J Med Chem, 2018).
